Reference: PubChem BioAssay AID2060329 (Molecular Pharmacology Branch, DTP, NCI, 2025)

System: MCF7 multi-cell spheroids with HUVEC/MSC, viability
Test: Anticancer human tumor MCF7 cell line growth inhibition [IpAb];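 further: spheroids exposed to agents for seven days before readout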
Conditions: for IC50: curve of first compound; for viability, T/C: stronger effect = lower value
Outline: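 Spheroids of 60% malignant cells, 25% HUVEC and 15% MSC were exposed to targeted agents combined with ipatasertib or abemaciclib. Doses started at or near clinical Cmax (10 microM when unknown) and fell in half-log steps.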

CC(=O)c1c(C)c2cnc(Nc3ccc(N4CCNCC4)cn3)nc2n(C2CCCC2)c1=O + CCN1CCN(Cc2ccc(Nc3ncc(F)c(-c4cc(F)c5nc(C)n(C(C)C)c5c4)n3)nc2)CC1
IC50 (second compound 0.01 µM): > 300 nM | IC50 (second compound 0.0316 µM): > 300 nM | IC50 (second compound 0.1 µM): > 300 nM | IC50 (second compound 0.316 µM): > 300 nM | IC50 (second compound 1 µM): > 300 nM | viability, T/C (second compound 0.01 µM, first compound 0.000949 µM): 93.2% | viability, T/C (second compound 0.01 µM, first compound 0.003 µM): 99.5% | viability, T/C (second compound 0.01 µM, first compound 0.00949 µM): 103% | viability, T/C (second compound 0.01 µM, first compound 0.03 µM): 104% | viability, T/C (second compound 0.01 µM, first compound 0.0949 µM): 97.4% | viability, T/C (second compound 0.01 µM, first compound 0.3 µM): 93.6% | viability, T/C (second compound 0.0316 µM, first compound 0.000949 µM): 101% | viability, T/C (second compound 0.0316 µM, first compound 0.003 µM): 95.4% | viability, T/C (second compound 0.0316 µM, first compound 0.00949 µM): 90.6% | viability, T/C (second compound 0.0316 µM, first compound 0.03 µM): 93.3% | viability, T/C (second compound 0.0316 µM, first compound 0.0949 µM): 93% | viability, T/C (second compound 0.0316 µM, first compound 0.3 µM): 94.1% | viability, T/C (second compound 0.1 µM, first compound 0.000949 µM): 93.9% | viability, T/C (second compound 0.1 µM, first compound 0.003 µM): 104% | viability, T/C (second compound 0.1 µM, first compound 0.00949 µM): 88.3% | viability, T/C (second compound 0.1 µM, first compound 0.03 µM): 99.3% | viability, T/C (second compound 0.1 µM, first compound 0.0949 µM): 92.8% | viability, T/C (second compound 0.1 µM, first compound 0.3 µM): 86.7% | viability, T/C (second compound 0.316 µM, first compound 0.000949 µM): 95% | viability, T/C (second compound 0.316 µM, first compound 0.003 µM): 90.9% | viability, T/C (second compound 0.316 µM, first compound 0.00949 µM): 96.6% | viability, T/C (second compound 0.316 µM, first compound 0.03 µM): 92.1% | viability, T/C (second compound 0.316 µM, first compound 0.0949 µM): 97% | viability, T/C (second compound 0.316 µM, first compound 0.3 µM): 85.5% | viability, T/C (second compound 1 µM, first compound 0.000949 µM): 82.7% | viability, T/C (second compound 1 µM, first compound 0.003 µM): 94.5% | viability, T/C (second compound 1 µM, first compound 0.00949 µM): 79.8% | viability, T/C (second compound 1 µM, first compound 0.03 µM): 79.8% | viability, T/C (second compound 1 µM, first compound 0.0949 µM): 87.1% | viability, T/C (second compound 1 µM, first compound 0.3 µM): 92.2%
